Patent publication US20130096097A1, “PHARMACEUTICAL MULTIMERIC PARTICLES, AND MANUFACTURING METHOD FOR SAME” (JAPAN SCIENCE AND TECHNOLOGY AGENCY, priority 2010, published 2013)

How the values were obtained:
[1] = cited from earlier work
[2] = test system: Human liver cancer cell lines HepG2; assay: In vitro anticancer activity, cell viability by Cell Counting Kit-8; format: cell-based; settings: for anticancer activity against HepG2 (cell viability): 0.15625-10 μM in terms of SN-38 monomer, 48 hours, FIG. 3
Method: Human liver cancer cell lines HepG2 was seeded on 96-well plate in 2×10^4 cells/well. Next day, irinotecan, SN-38 bulk crystal, SN-38 diester dimer nanoparticle, and SN-38 diisocyanate dimer nanoparticle were added to the HepG2 cell culture in an amount to be 0.15625, 0.3125, 0.625, 1.25, 2.5, 5 or 10 μM in terms of SN-38 monomer. After cultivating for 48 hours, the cell viability was measured by a colorimetric method using Cell Counting Kit-8 (manufactured by DOJINDO) and microplate reader (manufactured by BIO-RAD). […] In addition, it became obvious that when SN-38 was dimerized via ester bond or urethane bond, or further nanoparticulated, the anticancer activity thereof can be retained (FIG. 3).
Further, two kinds of aqueous dispersion solution of SN-38 dimer nanoparticles were left at room temperature for about one week, thus prepared aging sample.
In FIG. 3 and FIG. 4, there was no difference in the anticancer activity against HepG2 between the binding modes included in the SN-38 dimer nanoparticles, namely, ester bond and urethane bond. That is, both bonds are expected to be decomposed at about the same speed in the solution, and SN-38 monomers are formed. To confirm this, SN-38 is dimerized with low degradable ether bond, further subjected to aging, then studied the anticancer activity against HepG2. The treatment concentration at this time was made 0.1, 1, 10 μM in terms of SN-38.

[3] = Particle size of dimer nanoparticles in aqueous dispersion made by reprecipitation; format: physicochemical; settings: 5 mM DMSO solution injected into water at room temperature, final concentration 0.05 mM
Method: Dimer of SN-38 and succinic acid was weighed out to be 5 mM, and dissolved in DMSO 150 μl. Using water as poor solvent, 100 μl of the DMSO solution was injected into water 10 ml with syringe at room temperature, thus aqueous dispersion solution of dimer nanoparticles was prepared. Final concentration of the aqueous dispersion solution was 0.05 mM. The particle size was 50 nm (FIG. 1).
Dimer of SN-38 and tetramethylene diisocyanate was weighed out to be 5 mM, and dissolved in 150 μl of DMSO. Using water as poor solvent, 100 μl of the DMSO solution was injected into water 10 ml with syringe at room temperature, thus aqueous dispersion solution of dimer nanoparticles was prepared. Final concentration of the aqueous dispersion solution was 0.05 mM. The particle size was 50 nm (FIG. 2).
Dimer of betamethasone valerate and succinic acid was weighed out to be 5 mM, and dissolved in 150 μl of DMSO. Using water as poor solvent, 100 μl of the DMSO solution was injected into water 10 ml with syringe at room temperature, thus aqueous dispersion solution of dimer nanoparticles was prepared. Final concentration of the aqueous dispersion solution was 0.05 mM. The particle size was 150 nm (FIG. 2).

SMILES | anticancer activity against HepG2 (cell viability) [2] | particle size [3] | other results
CC[C@@]1(O)C(=O)OCc2c1cc1n(c2=O)Cc2cc3ccccc3nc2-1 [Camptothecin] | – | – | water-solubility [1]: extremely insoluble in water
CCc1c2c(nc3ccc(OC(=O)CCC(=O)Oc4ccc5nc6c(c(CC)c5c4)Cn4c-6cc5c(c4=O)COC(=O)C5(O)CC)cc13)-c1cc3c(c(=O)n1C2)COC(=O)C3(O)CC (centres unmarked) [Compound 18-(b), succinic acid bis(7-ethylcamptothecin-10-yl)ester] | remarkable anticancer activity | 50 nm | –
CCc1c2c(nc3ccc(OC(=O)NCCCCNC(=O)Oc4ccc5nc6c(c(CC)c5c4)Cn4c-6cc5c(c4=O)COC(=O)C5(O)CC)cc13)-c1cc3c(c(=O)n1C2)COC(=O)C3(O)CC (centres unmarked) [Compound 18-(c), butylene bis(7-ethylcamptothecin-10-yl)amide] | remarkable anticancer activity | 50 nm | –
CCc1c2c(nc3ccc(OC/C=C/COc4ccc5nc6c(c(CC)c5c4)Cn4c-6cc5c(c4=O)COC(=O)C5(O)CC)cc13)-c1cc3c(c(=O)n1C2)COC(=O)C3(O)CC (centres unmarked) [Compound 18-(d), bis(7-ethylcamptothecin-10-oxy)2-buten ether] | – | – | anticancer activity against HepG2 ([2]; 0.1, 1, 10 μM in terms of SN-38, FIG. 5): almost disappeared; aging effect on anticancer activity against HepG2 ([2]; 0.1, 1, 10 μM in terms of SN-38, aged sample, FIG. 5): little
CCCCC(=O)O[C@]1(C(=O)COC(=O)CCC(=O)OCC(=O)[C@@]2(OC(=O)CCCC)[C@@H](C)C[C@H]3[C@@H]4CCC5=CC(=O)C=C[C@]5(C)[C@@]4(F)[C@@H](O)C[C@@]32C)[C@@H](C)C[C@H]2[C@@H]3CCC4=CC(=O)C=C[C@]4(C)[C@@]3(F)[C@@H](O)C[C@@]21C [Compound 19-(b)] | – | 150 nm | –
CCc1c2c(nc3ccc(O)cc13)-c1cc3c(c(=O)n1C2)COC(=O)[C@]3(O)CC [SN-38, 10-hydroxy-7-ethylcamptothecin, reference compound] | remarkable anticancer activity | – | water-solubility [1]: extremely poor
CCc1c2c(nc3ccc(OC(=O)N4CCC(N5CCCCC5)CC4)cc13)-c1cc3c(c(=O)n1C2)COC(=O)[C@]3(O)CC [irinotecan, 7-ethyl-10-[4-(1-piperidino)-1-piperidino]carbonyloxycamptothecin, reference compound] | almost no anticancer activity | – | –
